Molecules are shown by their SMILES.

For data set [1], the system named is venous thrombosis in SD Rat. Briefly: Venous thrombosis in rat. The data set is classed as in vivo. The following applies: for antithrombotic effect (in words): single oral dose of 10 mg/kg. More on the design: wet weight of thrombus: unit not given here. From the text:
Animals: SD Rat (Weight 180˜210 g, Sex Male)
Solution preparation: Weigh proper amount of the test chemical, dissolved in DMSO to give the stock solutions, serial dilution with water then provided the required concentration of administration dosage.
Experimental procedures: After 3-day adaptive breeding, male Sprague-Dawley rats were randomly divided into groups: model group, positive drug group and compound groups, with 4˜6 rats in each group.
The rats in the model group were given either intravenous injection or intragastric administration with equivalent solvent, those in the positive or compound group were given either intravenous injection or intragastric administration in a dose of 10 mg/kg.
The left renal vein was ligated with a silk thread to initiate thrombus formation. After 6 hours of stasis, another ligature was made at the distal side 2 cm apart from the first, thrombus formed inside the vessel was carefully removed, blotted on wet filter paper and weighed.

A short description of data set [2]: Solubility tests at different pH values. In kind it is physicochemical. The following applies: aqueous buffer, thermodynamic from solid, 37° C. The method, then:
Weigh proper amount of the test chemical into buffered salt solutions with different pH value (4.0, 6.3, 7.4 and 9.0), the suspension was shaken at 37° C. for 1 hour. Precipitated and undissolved residues were removed by centrifugation. The content of the supernatant was determined by HPLC to analyze the solubility of the test chemical.

The nature of data set [3]: Pharmacokinetics in rat. In kind it is in vivo, SD Rat. The following applies: single i.v. dose of 2 mg/kg. As for the experimental part: Animals: SD Rat (Weight 200˜300 g, Sex Male)
(§1) Intragastric solution preparation: proper amount of the test chemical was weighed, and dissolved in DMSO to give the stock solution, which was then diluted serially with 0.5% CMC-Na solution to the required concentration of administration dosage.
(§2) IV solution preparation: proper amount of compound (V) was weighed, and dissolved in normal saline to give the stock solution, which was then diluted serially to the required concentration of administration dosage.
Experimental procedures: After 3-day adaptive breeding, male Sprague-Dawley rats were divided into groups randomly with 4 rats in each group.
Rats were orally given 10 mg/kg of the test compound via gavage for oral study or given 2 mg/kg of compound (V) via the femoral vein for intravenous (i.v.) study. Blood samples were collected from the orbitat at 15 min, 30 min, 1 h, 1.5 h, 2 h, 4 h, 6 h, 8 h, 10 h, and 24 h after dosing and were analyzed by LC-MS/MS after pretreatment.
(§3) WPS software was used to calculate the mean value, standard deviation, precision and accuracy of each sample.

The nature of data set [4]: Plasma stability (incubation in rat whole blood, conversion to compound (V)). The following applies: study period of 8 h. In kind it is in vitro ADME. As for the experimental part: An aliquot of 1 ml of rat whole blood was mixed with 50 ul of stock solution containing the test substance in DMSO (1 mg/ml) to obtain final concentration of 50 ug/ml. The mixture was incubated at 37° C. Samples were taken at time points of 0 min, 30 min, 1 h, 2 h, 4 h and 8 h, and then added to an organic solvent to terminate the reaction. After pretreatment each sample was analyzed by LC-MS/MS to determine the plasma concentrations of compound (III), compound (IV) and compound (V). […] The hydrolysis of the carbamate bond of each compound was accomplished within 30 minutes

The nature of data set [5]: Pharmacokinetics in dog. The following applies: single i.v. dose of 2 mg/kg. In kind it is in vivo, Beagle Dog. As for the experimental part:
as §1, §2
Experimental procedures: After 3-day adaptive breeding, male dogs were divided into groups randomly with 4 dogs in each group.
Dogs were orally given 5 mg/kg of the test compound via gavage for oral study or given 2 mg/kg of compound (V) via the femoral vein for intravenous (i.v.) study. Blood samples were collected at 15 min, 30 min, 1 h, 1.5 h, 2 h, 4 h, 6 h, 8 h, 10 h, and 24 h after dosing and were analyzed by LC-MS/MS after pretreatment.
as §3

Setting [6] is: single oral administration 10 mg/kg, Model 28.4 ± 7.5.
Where [7] appears, read: single intravenous injection 10 mg/kg, compared with melagatran, Model 19.6 ± 3.7.
Setting [8] is: single intravenous injection 10 mg/kg, compared with dabigatran, Model 22.7 ± 3.5.
The mark [9] stands for this setting: male, Sprague-Dawley, plasma, iv.

For orientation: solubility means the dissolved amount per volume that the medium holds. For `CCOCCCOC(=O)N=C(N)c1ccc(CNC(=O)[C@@H]2CCCN2C(=O)[C@@H](CC(C)C)NCC(=O)OCC)cc1.Cl` [Compound 10, N-[(ethoxy)carbonyl]methyl-D-leucyl-L-prolyl-{4-[N′-((3-(ethoxy)propoxy)carbonyl)carbamimidoyl]benzyl} amide hydrochloride], the “antithrombotic effect (in words)” value in data set [1] (rat) was “significant antithrombotic effect”. Also, the “wet weight of thrombus” value in data set [1] (setting [6]) stood at 14.6 ± 3.6. The solubility at 1 h stood at 6520 µM in data set [2] (pH 4.0, buffered salt solution); 3350 µM in data set [2] (pH 6.3, buffered salt solution); 495 µM in data set [2] (pH 7.4, buffered salt solution); 119 µM in data set [2] (pH 9.0, buffered salt solution).

As for `N=C(N)c1ccc(CNC(=O)[C@@H]2CCN2C(=O)[C@H](NCC(=O)O)C2CCCCC2)cc1` [Melagatran, reference compound], the “wet weight of thrombus” value in data set [1] (setting [7]) came out at 7.8 ± 7.6.

For the molecule `CCCCCCOC(=O)N=C(N)c1ccc(CNC(=O)[C@@H]2CCCN2C(=O)[C@@H](CC(C)C)NCC(=O)OCC)cc1.Cl` [Compound 17, N-[(ethoxy)carbonyl]methyl-D-leucyl-L-prolyl-{4-[N′-(hexyloxycarbonyl)carbamimidoyl]benzyl} amide hydrochloride], in data set [1] (rat), the “antithrombotic effect (in words)” value is given as “significant antithrombotic effect”. The “wet weight of thrombus” value in data set [1] (setting [6]) is reported as 11.0 ± 5.5. Besides, the solubility at 1 h was found to be 5840 µM in data set [2] (pH 4.0, buffered salt solution); 3720 µM in data set [2] (pH 6.3, buffered salt solution); 693 µM in data set [2] (pH 7.4, buffered salt solution); 147 µM in data set [2] (pH 9.0, buffered salt solution).

As to `[H]/N=C(/N)c1ccc(NCc2nc3cc(C(=O)N(CCC(=O)O)c4ccccn4)ccc3n2C)cc1` [Dabigatran, reference compound], in data set [1] (setting [8]), the “wet weight of thrombus” value is 15.7 ± 4.0.

Take `CCOC(=O)CN[C@H](CC(C)C)C(=O)N1CCC[C@H]1C(=O)NCc1ccc(C(N)=NC(=O)OCc2oc(=O)oc2C)cc1.Cl` [Compound 1, N-[(ethoxy)carbonyl]methyl-D-leucyl-L-prolyl-{4-[N′-(((5-methyl-2-oxo-1,3-dioxol-4-yl)methyl)oxycarbonyl)carbamimidoyl]benzyl} amide hydrochloride]: in data set [1] (rat), the “antithrombotic effect (in words)” value is on record as “significant antithrombotic effect”. The “wet weight of thrombus” value in data set [1] (setting [6]) amounted to 10.8 ± 5.1. The solubility at 1 h is 7720 µM in data set [2] (pH 4.0, buffered salt solution); 3990 µM in data set [2] (pH 6.3, buffered salt solution); 613 µM in data set [2] (pH 7.4, buffered salt solution); 196 µM in data set [2] (pH 9.0, buffered salt solution).

`CCOC(=O)CN[C@H](CC(C)C)C(=O)N1CCC[C@H]1C(=O)NCc1ccc(C(N)=NC(=O)CC(C)C(=O)OCC)cc1.Cl` (stereo partly drawn) [Compound 12, N-[(ethoxy)carbonyl]methyl-D-leucyl-L-prolyl-{4-[N′-((2-(ethoxycarbonyl)propyl)carbonyl)carbamimidoyl]benzyl} amide hydrochloride]: in data set [1] (rat), the “antithrombotic effect (in words)” value was “significant antithrombotic effect”. The “wet weight of thrombus” value in data set [1] (setting [6]) was found to be 20.5 ± 4.7.

Broadly, the AUC(0-inf) is the area under the concentration-time curve extrapolated to infinity. For orientation: Cmax means the maximum level reached in the sampled fluid or tissue. Usually half-life stands for how long it takes for the measured level to halve. Turning to `CC(C)C[C@@H](NCC(=O)O)C(=O)N1CCC[C@H]1C(=O)NCc1ccc(C(=N)N)cc1` [Compound of Formula (V)], in data set [1] (rat, single injection at 10 mg/kg), the “anti-thrombotic activity (in words)” value is “superior anti-thrombotic activity compared to dabigatran and melagatran”. The figures for the “wet weight of thrombus” value in data set [1] (setting [8]) and in data set [1] (setting [7]) were 13.3 ± 1.5 and 6.8 ± 5.0, respectively. For the same molecule, the AUC(0-inf) in data set [3] (setting [9]) worked out at 2960 ng·h/mL; in data set [5] (male, beagle, plasma, iv), 4340 ng·h/mL. Also, the highest concentration (Cmax) in data set [3] (setting [9]) worked out at 4720 ng/mL; in data set [5] (male, beagle, plasma, iv), 4040 ng/mL. In addition, the half-life in data set [3] (setting [9]) is 5.02 h; in data set [5] (male, beagle, plasma, iv), 11.8 h. The CLz/F in data set [3] was found to be 11.6 mL/min/kg; in data set [5], 7.9 mL/min/kg. In data set [4], the “stability in plasma stability experiment (in words)” value is “substantially stable, with no significant degradation”.

As to `CCOC(=O)CN[C@H](CC(C)C)C(=O)N1CCC[C@H]1C(=O)NCc1ccc(C(N)=NC(=O)OCCOCCOCc2ccccc2)cc1.Cl` [Compound 8, N-[(ethoxy)carbonyl]methyl-D-leucyl-L-prolyl-{4-[N′-((2-(2-(benzyloxy)ethoxy)ethoxy)carbonyl)carbamimidoyl]benzyl} amide hydrochloride], the “antithrombotic effect (in words)” value in data set [1] (rat) is on record as “significant antithrombotic effect”. In addition, the “wet weight of thrombus” value in data set [1] (setting [6]) was 12.5 ± 3.1.

`CCOC(=O)CN[C@H](CC(C)C)C(=O)N1CCC[C@H]1C(=O)NCc1ccc(C(N)=NC(=O)OCCOC)cc1.Cl` [Compound 2, N-[(ethoxy)carbonyl]methyl-D-leucyl-L-prolyl-{4-[N′-((2-(methoxy)ethoxy)carbonyl)carbamimidoyl]benzyl}amide hydrochloride]: in data set [1] (rat), the “antithrombotic effect (in words)” value is on record as “significant antithrombotic effect”. The “wet weight of thrombus” value in data set [1] (setting [6]) is 16.7 ± 8.0.

Take `CCOCCOCCOC(=O)N=C(N)c1ccc(CNC(=O)[C@@H]2CCCN2C(=O)[C@@H](CC(C)C)NCC(=O)OCC)cc1.Cl` [Compound 6, N-[(ethoxy)carbonyl]methyl-D-leucyl-L-prolyl-{4-[N′-((2-(2-(ethoxy)ethoxy)ethoxy)carbonyl)carbamimidoyl]benzyl} amide hydrochloride]: in data set [1] (rat), the “antithrombotic effect (in words)” value is reported as “significant antithrombotic effect”. Further, the “wet weight of thrombus” value in data set [1] (setting [6]) is on record as 19.7 ± 6.4.

As for `CCCCCCOC(=O)N=C(N)c1ccc(CNC(=O)[C@@H]2CCCN2C(=O)[C@@H](CC(C)C)NCC(=O)OC(C)(C)C)cc1.Cl` [Compound 19, N-[(tert-butyloxy)carbonyl]methyl-D-leucyl-L-prolyl-{4-[N′-(hexyloxycarbonyl)carbamimidoyl]benzyl} amide hydrochloride], the “antithrombotic effect (in words)” value in data set [1] (rat) is recorded as “significant antithrombotic effect”. Also, in data set [1] (setting [6]), the “wet weight of thrombus” value is 13.9 ± 6.0.

Values taken from patent US12209141B2, “Dipeptide compounds and uses thereof” (HUAHAI US INC., priority 2018, dated 2025).
